Experimental data published in paper PMC9797592, “TJ-M2010-5, a novel CNS drug candidate, attenuates acute cerebral ischemia-reperfusion injury through the MyD88/NF-κB and ERK pathway” (Frontiers in Pharmacology, 2022).

Experiments:
[1] = system: MyD88/NF-κB and ERK signaling pathway; assay: Simple Western / RT-qPCR of MyD88/NF-κB and ERK pathway in the brain of CIRI mice; format: in vivo, C57BL/6 mice; conditions: TJ-5 15 mg/kg
Method: Total mRNA was extracted from the brain cortex using TRIzol reagent and reverse-transcribed into cDNA using the PrimeScript™ RT reagent kit (Takara, Japan), following the manufacturer’s instructions. RT-qPCR was performed using SYBR Green Real-time PCR Master Mix (Takara, Japan) with the Step One System (Life Technologies). The results were expressed as fold change from the untreated control and analyzed using the 2^−ΔΔCt method. The primers were as follows (5′–3′): MyD88 forward: TTTATCTGCTACTGCCCCAACG, reverse: GCGGCGACACCTTTTCTCA; TLR4 forward: ATGCTGCAACTGATGTTCCTTC, reverse: GATGTTAGACCTTTCTTCCTCCC; GAPDH forward: TGTTCCTACCCCCAATGTGTCC, reverse: GGAGTTGCTGTTGAAGTCGCAG; TNF-α forward: ATGGCCTCCCTCTCATCAGT, reverse: TGGTTTGCTACGACGTGGG; IL-6 forward: AGTGGCTAAGGACCAAGAC, reverse: ATAACGCACTAGGTTTGCCGA; iNOS forward: ATTCACAGCTCATCCGGTACG, reverse: GGATCTTGACCATCAGCTTGC; IL-1β forward: GCACTACAGGCTCCGAGATGAA, reverse: GTCGTTGCTTGGTTCTCCTTGT.
Here, Simple Western, a novel immunoassay to detect proteins in the brain, was used, as previously described ([Kannan et al., 2018]; [Nanki et al., 2018]). Briefly, the prepared proteins were diluted to a concentration of 0.5 mg/ml using a sample preparation kit (Protein Simple, United States). Then, according to the manufacturer’s instructions, the prepared reagents were added to the detection plate sequentially for processing in an automated capillary electrophoresis system (Simple Western system). The primary antibodies recognized HMGB1, TLR4, MyD88, NeuN, P-ERK, P-IκBα, IκBα, NF-κB p65 (CST, 1:50), Histone H3 (ABclonal, 1:50), and GAPDH (ABclonal, 1:1000). Compass for SW software v4.0.0 (Protein Simple, United States) was used to quantitatively analyze the signal intensity (area) of the protein.

[2] = system: CIRI mice; assay: Flow cytometry of immune cells isolated from the ischemic brain hemisphere; format: in vivo, C57BL/6 mice; conditions: TJ-5 injected at the time of reperfusion
Method: After the mice were anesthetized, 0.9% saline was used for transcardial perfusion. The right brain hemispheres were homogenized in a 6-well plate using 2 ml Hank’s balanced salt solution (HBSS, Solarbio) per well. Collagenase IV (1 mg/ml) was added to […]. The brain homogenate was filtered through a 70 μm cell strainer and centrifuged at 300 g for 5 min at 4°C. Then, 2 ml of 30% Percoll (Sigma) were added to resuspend the brain cell precipitate, and the resuspended cells were slowly added to a 15 ml centrifuge tube containing 3 ml of 70% Percoll. The intermediate layer cells were analyzed by flow cytometry after density-gradient centrifugation.
Approximately 5 × 10^5 cells were suspended in 200 μL HBSS, and anti-mouse CD16/CD32 (5 ng/μL) was used to block Fc receptor binding. The cells were stained with allophycocyanin-conjugated CD45 antibody (1 ng/μL), FITC-conjugated CD11b antibody (1 ng/μL), and phycoerythrin-conjugated Ly6G antibody (1 ng/μL) and incubated in the dark at 4°C for 30 min. Finally, the cells were washed with HBSS buffer, resuspended in 200 μL of HBSS, and analyzed using a flow cytometer (BD FACSCalibur).

[3] = system: OGD/R-induced SH-SY5Y cells; assay: OGD/R-induced SH-SY5Y cell apoptosis, Annexin V/PI flow cytometry; format: cell-based; conditions: OGD 4 h / R 24 h with TJ-5
Method: The oxygen glucose deprivation/reoxygenation (OGD/R)-induced SH-SY5Y cell model was established to mimic CIRI as previously described ([Dong et al., 2021]). Briefly, SH-SY5Y cells were cultured in glucose-free Dulbecco’s Modified Eagle Medium, and the flasks were placed inside an incubator (1% O2, 94% N2, 5% CO2) for 4 h. OGD cells were then incubated in standard culture conditions with or without TJ-5 for 24 h of reperfusion. OGD 4 h/R 24 h SH-SY5Y cells were harvested, and the Annexin V/PI Apoptosis Kit (Multi- Science Biotech, China) was used to detect apoptosis by flow cytometry.

[4] = system: NF-κB p65; assay: NF-κB p65 nuclear translocation in LPS-stimulated BV-2 cells, immunofluorescence; format: cell-based; conditions: 12 h after LPS stimulation
Method: BV-2 microglial and SH-SY5Y cells were cultured as previously described ([Zhao et al., 2020]). A lipopolysaccharide (LPS)-stimulated BV-2 cell model was established to mimic severe neuroinflammation induced by multiple inflammatory mediators after reperfusion ([Li et al., 2021]). BV-2 cells were pretreated with different concentrations of TJ-5 for 2 h before LPS (1 μg/ml) stimulation (#L2880, Sigma, United States). […] In addition, ST2825, a recognized MyD88 inhibitor, was used as positive control group.
For BV-2 cells immunofluorescence staining, the cells were fixed with 4% paraformaldehyde for 10 min and permeabilized with 0.5% Triton X-100 for 10 min. After blocking with goat serum, the cells were sequentially incubated with the primary antibody, secondary antibody, and Hoechst in sequence. Images were captured using a confocal microscope. The fluorescence intensity was analyzed using ImageJ software.

[5] = system: BV-2 cells; assay: CCK-8 cell viability assay, BV-2; format: cell-based; conditions: concentrations below 20 μM, 24 h
Method: BV-2 and SH-SY5Y cells were seeded in a 96-well plate at a density of 1 × 10^4 cells/well. Twenty-4 hours later, different concentrations of TJ-5 (0, 1, 5, 10, 20, and 30 μM) were added and co-cultured with cells for 24 h. Cell Counting Kit-8 (CCK8, Sigma, Shanghai, China) was used to measure cell viability. Experiments were conducted according to the manufacturer’s instructions. After incubation at 37°C for 2 h, absorbance was measured at 450 nm using a microplate reader (Synergy 2, BioTek Instruments, United States).

## O=C(CCN1CCN(Cc2ccccc2)CC1)Nc1nc(-c2ccccc2)cs1 [TJ-5]
[1]
  expression of HMGB1, TLR4, and MyD88 in the ischemic hemisphere: downregulated
  phosphorylation of ERK in the ischemic hemisphere: inhibited
  phosphorylation of IκBα and nuclear translocation of NF-κB p65 in the ischemic hemisphere: reduced
[1]; I/R-induced decrease
  NeuN protein levels in the brain: attenuated this decrease
[2]
  number of brain-infiltrating CD11b+CD45hi myeloid cells: reduced the number
  proportion of inactive microglia (CD11b+CD45int): increased the proportion
[3]
  apoptosis of OGD/R-induced SH-SY5Y cells: significantly reduced apoptosis
[4]
  LPS-induced NF-κB p65 nuclear translocation: significantly prevented
[5]
  viability of BV-2 cells: did not affect the viability
